In patent US20240262832A1, “SMALL MOLECULE MODULATORS OF GLUCOCEREBROSIDASE ACTIVITY AND USES THEREOF” (Vanqua Bio, Inc., priority 2021, published 2024):

Target: T1, GCase (Homo sapiens, UniProt P04062)
T1 construct: endogenous in cells; host or cells: HeLa cells
T1 sequence (P04062 40-536): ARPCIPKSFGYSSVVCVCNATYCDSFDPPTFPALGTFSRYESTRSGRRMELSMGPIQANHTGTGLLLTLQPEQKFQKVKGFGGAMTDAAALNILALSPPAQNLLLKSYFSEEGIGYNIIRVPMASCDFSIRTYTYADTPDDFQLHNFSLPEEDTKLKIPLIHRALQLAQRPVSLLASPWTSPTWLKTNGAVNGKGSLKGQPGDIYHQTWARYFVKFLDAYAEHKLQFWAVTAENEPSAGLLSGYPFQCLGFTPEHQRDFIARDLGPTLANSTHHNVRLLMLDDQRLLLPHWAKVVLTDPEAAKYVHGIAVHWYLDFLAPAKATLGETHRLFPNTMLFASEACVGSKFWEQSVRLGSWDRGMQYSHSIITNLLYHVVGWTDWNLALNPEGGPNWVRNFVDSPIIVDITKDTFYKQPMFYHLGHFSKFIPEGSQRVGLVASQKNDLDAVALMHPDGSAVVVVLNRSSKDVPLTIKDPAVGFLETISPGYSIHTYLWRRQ
Test: activation of GCase in a live cell PFB assay in HELA cells
Format: cell-based

Row | SMILES | EC50 [µM]
1 | C[C@@H]1C[C@H](COc2cccnc2C(F)(F)F)CN(c2cnc3cnn(CC45CC(C4)C5)c3n2)C1 [Compound 281, 1-(Bicyclo[1.1.1]pentan-1-ylmethyl)-6-((3R,5S)-3-methyl-5-(((2-(trifluoromethyl)pyridin-3-yl)oxy)methyl)piperidin-1-yl)-1H-pyrazolo[3,4-b]pyrazine] | < 10
2 | FC(F)Cn1ncc2ncc(N3CC4CC4(COc4cccc(C(F)(F)F)n4)C3)nc21 (centres unmarked) [Compound 284, 3-[1-(2,2-Difluoroethyl)-1H-Pyrazolo[3,4-b]Pyrazin-6-Yl]-1-({[6-(Trifluoromethyl)Pyridin-2-Yl]Oxy}Methyl)-3-Azabicyclo[3.1.0]Hexane] | 10 to 50
3 | FC(F)Cn1ncc2ncc(N3CC4CC4(COc4cc(C(F)(F)F)ccn4)C3)nc21 (centres unmarked) [Compound 285, 3-[1-(2,2-Difluoroethyl)-1H-pyrazolo[3,4-b]pyrazin-6-yl]-1-({[4-(trifluoromethyl)pyridin-2-yl]oxy}methyl)-3-azabicyclo[3.1.0]hexane] | 10 to 50
4 | Cn1c(-c2ccc(F)cn2)nc2ncc(N3C[C@@H]4[C@@H](COc5cc(F)cc(F)c5)[C@@H]4C3)nc21 [Compound 286, 6-((1R,5S,6r)-6-((3,5-Difluorophenoxy)methyl)-3-azabicyclo[3.1.0]hexan-3-yl)-2-(5-fluoropyridin-2-yl)-1-methyl-1H-imidazo[4,5-b]pyrazine] | > 100
5 | CCn1c(=O)n(CC)c2nc(N3C[C@@H](C)C[C@@H](COc4cccnc4C(F)(F)F)C3)cnc21 [Compound 288a, 1,3-Diethyl-5-((3S,5R)-3-methyl-5-(((2-(trifluoromethyl)pyridin-3-yl)oxy)methyl)piperidin-1-yl)-1,3-dihydro-2H-imidazo[4,5-b]pyrazin-2-one] | < 10
6 | CCn1c(=O)n(CC)c2nc(N3C[C@@H](C)C[C@H](COc4cccnc4C(F)(F)F)C3)cnc21 [Compound 288b, 1,3-Diethyl-5-((3S,5S)-3-methyl-5-(((2-(trifluoromethyl)pyridin-3-yl)oxy)methyl)piperidin-1-yl)-1,3-dihydro-2H-imidazo[4,5-b]pyrazin-2-one] | 10 to 50
7 | CN(CC1CCCN(c2ncccc2C(F)(F)F)C1)c1cnc2cnn(CC(F)F)c2n1 (centres unmarked) [Compound 289, 1-(2,2-Difluoroethyl)-N-methyl-N-((1-(3-(trifluoromethyl)pyridin-2-yl)piperidin-3-yl)methyl)-1H-pyrazolo[3,4-b]pyrazin-6-amine] | < 10
8 | FC(F)(F)c1ccc2sc([C@H]3[C@@H]4CN(c5cnc6cnn(C7COC7)c6n5)C[C@@H]43)nc2c1 [Compound 290, 2-((1R,5S,6r)-3-(1-(Oxetan-3-yl)-1H-pyrazolo[3,4-b]pyrazin-6-yl)-3-azabicyclo[3.1.0]hexan-6-yl)-5-(trifluoromethyl)benzo[d]thiazole] | 10 to 50
9 | COC1CC(COc2cccnc2C(F)(F)F)CN(c2cnc3cnn(CC(F)F)c3n2)C1 (centres unmarked) [Compound 291, 1-(2,2-Difluoroethyl)-6-(3-methoxy-5-(((2-(trifluoromethyl)pyridin-3-yl)oxy)methyl)piperidin-1-yl)-1H-pyrazolo[3,4-b]pyrazine] | < 10
10 | Cc1ccccc1OCC1CCCN(C(=O)c2cnn3c(-c4ccccc4)ccc(F)c23)C1 (centres unmarked) [Compound 292, (4-Fluoro-7-phenylpyrazolo[1,5-a]pyridin-3-yl)(3-((o-tolyloxy)methyl)piperidin-1-yl)methanone] | 10 to 50
11 | COCC1CCC(COc2cccnc2C(F)(F)F)CN1c1cnc2cnn(CC(F)F)c2n1 (centres unmarked) [Compound 295, 1-(2,2-Difluoroethyl)-6-(2-(methoxymethyl)-5-(((2-(trifluoromethyl)pyridin-3-yl)oxy)methyl)piperidin-1-yl)-1H-pyrazolo[3,4-b]pyrazine] | < 10
12 | Cc1ccccc1OCC1CCCN(C(=O)c2cnn3c(-c4ccccc4C#N)ccc(F)c23)C1 (centres unmarked) [Compound 296, 2-(4-Fluoro-3-(3-((o-tolyloxy)methyl)piperidine-1-carbonyl)pyrazolo[1,5-a]pyridin-7-yl)benzonitrile] | < 10
13 | C[C@@H]1C[C@H](CN(C)C23CC(C2)C3)CN(c2cnc3cnn(CC(F)F)c3n2)C1 [Compound 297] | 10 to 50
14 | CO[C@@H]1CCN(c2cnc3cnn(CC(F)F)c3n2)C[C@@H]1COc1cccnc1C(F)(F)F [Compound 298a, 1-(2,2-Difluoroethyl)-6-((3R,4R)-4-methoxy-3-(((2-(trifluoromethyl)pyridin-3-yl)oxy)methyl)piperidin-1-yl)-1H-pyrazolo[3,4-b]pyrazine] | 50 to 100
15 | FC(F)Cn1ncc2ncc(N3C[C@H](COc4cccnc4C(F)(F)F)C[C@H](OC(F)F)C3)nc21 [Compound 299a, 1-(2,2-Difluoroethyl)-6-((3S,5R)-3-(difluoromethoxy)-5-(((2-(trifluoromethyl)pyridin-3-yl)oxy)methyl)piperidin-1-yl)-1H-pyrazolo[3,4-b]pyrazine] | 10 to 50
16 | FC(F)Cn1ncc2ncc(N3C[C@H](COc4cccnc4C(F)(F)F)C[C@@H](OC(F)F)C3)nc21 [Compound 299b, 1-(2,2-Difluoroethyl)-6-((3R,5R)-3-(difluoromethoxy)-5-(((2-(trifluoromethyl)pyridin-3-yl)oxy)methyl)piperidin-1-yl)-1H-pyrazolo[3,4-b]pyrazine] | < 10

More lines, now with the values ahead:

Row | EC50 [µM] | SMILES
17 | < 10 | C[C@@H]1CC[C@H](COc2ccncc2C(F)(F)F)CN1c1cnc2cnn(CC(F)F)c2n1 [Compound 282, 1-(2,2-Difluoroethyl)-6-((2R,5S)-2-methyl-5-(((3-(trifluoromethyl)pyridin-4-yl)oxy)methyl)piperidin-1-yl)-1H-pyrazolo[3,4-b]pyrazine]
18 | 10 to 50 | O=c1cc(-c2ccccc2)cc(N2CCC[C@H](COc3cccnc3C(F)(F)F)C2)[nH]1 [Compound 300, (S)-4-Phenyl-6-(3-(((2-(trifluoromethyl)pyridin-3-yl)oxy)methyl)piperidin-1-yl)pyridin-2(1H)-one]
19 | > 100 | O=c1[nH]c(N2CCC[C@H](COc3cccnc3C(F)(F)F)C2)cc2c1cnn2CC(F)F [Compound 306, (S)-1-(2,2-difluoroethyl)-6-(3-(((2-(trifluoromethyl)pyridin-3-yl)oxy)methyl)piperidin-1-yl)-1,5-dihydro-4H-pyrazolo[4,3-c]pyridin-4-one]
20 | 10 to 50 | O=C(c1ccc2cc[nH]c2c1)N1CCC(Oc2cncc(C(F)(F)F)c2)CC1 [Compound 307, (1H-Indol-6-yl)(4-((5-(trifluoromethyl)pyridin-3-yl)oxy)piperidin-1-yl)methanone]
21 | < 10 | FC(F)Cn1ncc2ncc(N3CCC(COc4ccncc4C(F)(F)F)CC3)nc21 [Compound 308, 1-(2,2-Difluoroethyl)-6-(4-(((3-(trifluoromethyl)pyridin-4-yl)oxy)methyl)piperidin-1-yl)-1H-pyrazolo[3,4-b]pyrazine]
22 | 10 to 50 | FC(F)Cn1ncc2ncc(N3CCC(Oc4cccc(C(F)(F)F)n4)CC3)nc21 [Compound 309, 1-(2,2-Difluoroethyl)-6-(4-((6-(trifluoromethyl)pyridin-2-yl)oxy)piperidin-1-yl)-1H-pyrazolo[3,4-b]pyrazine]
23 | 10 to 50 | O=C(c1ccc2cc[nH]c2c1)N1CCC(Oc2cnccc2C(F)(F)F)CC1 [Compound 310, (1H-Indol-6-yl)(4-((4-(trifluoromethyl)pyridin-3-yl)oxy)piperidin-1-yl)methanone]
